Measured values published in publication PMC4280898, “Diazido Mixed-Amine Platinum(IV) Anticancer Complexes Activatable by Visible-Light Form Novel DNA Adducts” (Chemistry (Weinheim an Der Bergstrasse, Germany), 2013).
“And” between values parts separate entries of the source, which are not always exact repeats. Equal values may be shown once.

Columns and labels:
[1] = system: calf thymus DNA; assay: Binding to calf thymus DNA (differential pulse polarography); conditions: in the dark; ri=0.05, 10 mM NaClO4, 310 K
Method: Binding to calf thymus DNA: Samples of double-helical calf thymus DNA (32 μg mL^−1) were treated with the Pt complexes at the ri=0.05 (ri is defined as the molar ratio of free platinum complex to nucleotide phosphates at the onset of incubation with DNA) in NaClO4 (10 mM) and incubated at 310 K in the dark for complexes 5 or 6 (Figure 7 C and D). For complexes 1 or 2, samples were irradiated continuously with 420 nm light for 30 min and then further incubated in the dark for up to 24 h so that the activated forms of the complexes could bind DNA (Figure 7 A and B). The amount of Pt bound to DNA increased with time for all four complexes. […]
the UKS method with the unrestricted PBE1PBE functional was employed. […] Thirty-two singlet and eight triplet excited states with the corresponding oscillator strengths were determined with a Time-dependent Density Functional Theory (TDDFT)[15] calculation. […]
assayed by differential pulse polarography for free, unbound platinum.[16] The amount of platinum bound to DNA was calculated by subtracting the amount of free (unbound) platinum from the total amount of platinum present in the reaction. […]
This fragment contained T7 RNA polymerase promoter (in the upper strand close to its 3'-end). […] The fragments produced in RNA synthesis on the template modified by the platinum complexes were analysed by a 6% polyacrylamide/8M urea sequencing gel. […]

[2] = biological target: T1, HMGB1 protein (Homo sapiens, UniProt P09429); assay: HMGB1 recognition of platinated 50 bp duplex, gel mobility shift assay; type: binding; conditions: 50 bp duplex modified in the dark
T1 sequence (P09429 1-215): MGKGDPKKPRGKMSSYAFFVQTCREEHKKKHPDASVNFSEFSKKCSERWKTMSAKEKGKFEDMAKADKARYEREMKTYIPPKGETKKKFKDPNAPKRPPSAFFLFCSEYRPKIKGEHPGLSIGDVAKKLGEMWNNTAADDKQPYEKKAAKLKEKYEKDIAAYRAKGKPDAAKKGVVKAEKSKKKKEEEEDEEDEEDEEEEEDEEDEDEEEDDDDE
Description: HMGB1 protein recognition: The interactions of high mobility group protein B1 (HMGB1) with a 50 bp duplex DNA adducts formed by 1 or 2 under irradiation conditions and 5 or 6 in the dark were investigated using a gel mobility shift assay.
Figure 13 Recognition by HMGB1 protein of platinated DNA. Affinity of full-length HMGB1 to non-modified (control) DNA (lanes 1 and 2) or DNA modified by cisplatin (7) in the dark (lanes 3 and 4), 5 in the dark (lanes 5 and 6), 6 in the dark (lanes 7 and 8), photoactivated 1 (420 nm light, lanes 9 and 10) or photoactivated 2 (420 nm light, lanes 11 and 12). Lanes 1, 3, 5, 7, 9, 11, no protein added; lanes 2, 4, 6, 8, 10, 12, 700 ng HMGB1 added.

[3] = system: pUC19 plasmid DNA; assay: Unwinding of negatively supercoiled DNA, native agarose gel; type: biochemical; conditions: in the dark
Method: Unwinding of negatively supercoiled DNA: The unwinding induced in negatively supercoiled pUC19 plasmid DNA by treatment with photoactivated 1 or 2 or with 5 or 6 in the dark was measured. The degree of supercoiling was monitored using electrophoresis in native agarose gels[25] (Figure 12). The DNA unwinding angles for 1, 2, 5, and 6 were 22(±3)°, 20(±3)°, 19(±5)° and 23(±2)°, respectively.
Figure 12 Unwinding of negatively supercoiled […] plasmid DNA by: A) 1, and B) 2 under irradiation conditions (420 nm light); or C) 5, and D) 6 in the dark. The top bands in each panel correspond to the form of nicked plasmid and the bottom bands to the closed, negatively supercoiled plasmid. A) Lane 1: control, non-modified DNA; lane 2: irradiated control DNA; […]: DNA modified by photoactivated 1 at rb=0.016, 0.024, 0.032, 0.041 and 0.049, respectively. B) Lanes 1 and 10: control, non-modified DNA; lane 2: irradiated control DNA; lanes 3–9: DNA modified by photoactivated 2 at rb=0.008, 0.011, 0.020, 0.026, 0.035, 0.042 and 0.050, respectively. C) Lanes 1 and 12: control, non-modified DNA; lanes 2–11: DNA modified by 5 in the dark at rb=0.018, 0.027, 0.036, 0.045, 0.054, 0.063, 0.072, 0.081, 0.090 and 0.1, respectively. […]

| Compound | Pt bound after 24 h [1] | HMGB1 protein recognition [2] | Unwinding angle [3] |
| --- | --- | --- | --- |
| C[NH2+][Pt@SP3-2]([Cl])([Cl])[n+]1ccccc1 [Complex 5, trans-[PtCl2(MA)(Py)]] | 80(±5) % and 80±5% | no detectable binding and no | 19(±5) ° and 19±5 ° |
| C[NH2+][Pt@SP3-2]([Cl])([Cl])[n+]1ccsc1 [Complex 6, trans-[PtCl2(MA)(Tz)]] | 63(±5) % and 63±5% | no detectable binding and no | 23(±2) ° and 23±2 ° |
